Numbered stars: 1 amine (or outer) side, 2 acyl side, 3 side chain; on linkers, the order of the positions; unused ones are H or OH. Bridge positions count the residues as written; N and C are the ends. Square brackets hold non-standard residues; d marks the D form. Peptide text beside a SMILES is read from it. * marks the point of attachment. hPhe(3,5-F2-4-CF3) = N[C@@H](CCc1cc(F)c(C(F)(F)F)c(F)c1)C(=O)O; hPhe(3-Cl-4-CF3) = N[C@@H](CCc1ccc(C(F)(F)F)c(Cl)c1)C(=O)O; hPhe(3-F,4-CF3) = N[C@@H](CCc1ccc(C(F)(F)F)c(F)c1)C(=O)O; NMePhe(4-CF3) = CN[C@@H](Cc1ccc(C(F)(F)F)cc1)C(=O)O; 3Oxa8azabicyclo(3.2.1)octane = C1CC2COCC1N2*; NEtPhe(4-Me) = CCN[C@@H](Cc1ccc(C)cc1)C(=O)O; NMePhe(4-Cl) = CN[C@@H](Cc1ccc(Cl)cc1)C(=O)O; NMePhe(4-Me) = CN[C@@H](Cc1ccc(C)cc1)C(=O)O; NMedβ3hAla = C[C@H](CC(=O)[*:2])N(C)[*:1]; NMeAla(cPent) = CN[C@@H](CC1CCCC1)C(=O)O; NMeGly(cPent) = CN[C@H](C(=O)O)C1CCCC1; NMeCha = CN[C@@H](CC1CCCCC1)C(=O)O; NMeGly(cPr) = CN[C@H](C(=O)O)C1CC1; Hyp = O=C(O)[C@@H]1C[C@@H](O)CN1; NMeAhp(2) = CCCCC[C@H](NC)C(=O)O; NMeChg = CN[C@H](C(=O)O)C1CCCCC1; NMeF = CN[C@@H](Cc1ccccc1)C(=O)O; NMeI = CC[C@H](C)[C@H](NC)C(=O)O; NMeD = CN[C@@H](CC(=O)O)C(=O)O; NMeL = CN[C@@H](CC(C)C)C(=O)O; NEtAla = CCN[C@@H](C)C(=O)O; NMeV = CN[C@H](C(=O)O)C(C)C; d(β3hA) = C[C@@H](N)CC(=O)O; NMeS = CN[C@@H](CO)C(=O)O; dNMeS = CN[C@H](CO)C(=O)O; hSer = N[C@@H](CCO)C(=O)O; Morpholide = C1CN(*)CCO1; NMeA = CN[C@@H](C)C(=O)O; Piperidide = C1CCN(*)CC1; Pyrrolidide = C1CCN(*)C1; Ac5c = NC1(C(=O)O)CCCC1; Aze = O=C(O)[C@@H]1CCN1; CH2CMe2OH = CC(C)(O)C*; Aib = CC(C)(N)C(=O)O; Isopentyl = CC(C)CC*; NEtG = CCNCC(=O)O; Sar = CNCC(=O)O
Experiments:
[1] = target: protein-protein interaction between Kras and SOS1 (biotin-tagged human Kras loaded with GDP, His-tagged human SOS1) (Homo sapiens (Human), UniProt P01116, G12D); experiment: Protein-protein interaction inhibition between Kras and SOS1 (KrasG12D-SOS PPI) using AlphaScreen; format: biochemical; conditions: AlphaScreen; biotin-tagged human Kras loaded with GDP, His-tagged human SOS1; read-out: KRAS G12D-SOS PPI IC50;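 also: kras produced in E. coli, Ni-coupled donor beads and streptavidin acceptor beads, excitation 680 nm with emission detected at 520–620 nm via singlet oxygen transfer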
[2] = tested on: Human pancreatic cancer cell line AsPC-1 (G12D mutation Kras); experiment: AsPC-1 cell growth inhibition (AsPC-1 CGI); format: cell-based; conditions: read-out: AsPC-1 cell growth inhibition, 50% growth inhibitory concentration (IC50 value); 96 hours, CellTiter-Glo, values classified in ranges

SMILES	IC50 [1] [nM]	IC50 [2] [nM]
CC[C@H](C)[C@@H]1NC(=O)[C@H](CC(C)C)N(C)C(=O)C[C@@H](C(=O)N2C3CCC2COC3)N(C)C(=O)[C@H](C2CCCC2)N(C)C(=O)C2(CCCC2)NC(=O)[C@@H]2CCCN2C(=O)[C@H](CCc2ccc(C(F)(F)F)c(Cl)c2)NC(=O)CN(C)C(=O)[C@H](C2CCCC2)N(C)C(=O)[C@@H]2CCN2C(=O)[C@H](C)N(C)C1=O [Compound 721] ([NMeL]I[NMeA][Aze][NMeGly(cPent)][Sar][hPhe(3-Cl-4-CF3)]P[Ac5c][NMeGly(cPent)][NMeD]-{3Oxa8azabicyclo(3.2.1)octane}; lactam N-11)	1.5	≤ 20
CC[C@H](C)[C@@H]1NC(=O)[C@H](CC(C)C)N(C)C(=O)C[C@@H](C(=O)N2CCCC2)N(C)C(=O)[C@H]([C@@H](C)CC)N(C)C(=O)C2(CCCC2)NC(=O)[C@@H]2CCCN2C(=O)[C@H](CCc2cc(F)c(C(F)(F)F)c(F)c2)NC(=O)CN(C)C(=O)[C@H](Cc2ccc(C)cc2)N(CC)C(=O)[C@@H]2CCN2C(=O)[C@H](C)N(C)C1=O [Compound 1351] ([NMeL]I[NMeA][Aze][NEtPhe(4-Me)][Sar][hPhe(3,5-F2-4-CF3)]P[Ac5c][NMeI][NMeD]-Pyrrolidide; lactam N-11)	0.82	≤ 20
CC[C@H](C)[C@@H]1NC(=O)[C@H](CC(C)C)N(C)C(=O)C[C@@H](C(=O)N2CCCCC2)N(C)C(=O)[C@H](C2CCCCC2)N(C)C(=O)C2(CCCC2)NC(=O)[C@H](C)N(CC)C(=O)[C@H](CCc2ccc(C(F)(F)F)c(Cl)c2)NC(=O)CN(C)C(=O)[C@H](CC2CCCCC2)N(C)C(=O)CN(C)C(=O)CN(C)C1=O [Compound 1045] ([NMeL]I[Sar][Sar][NMeCha][Sar][hPhe(3-Cl-4-CF3)][NEtAla][Ac5c][NMeChg][NMeD]-Piperidide; lactam N-11)	6.7	> 500
CC[C@H](C)[C@@H]1NC(=O)[C@H](CC(C)C)N(C)C(=O)C[C@@H](C(=O)N2CCCCC2)N(C)C(=O)[C@H](C2CCCCC2)N(C)C(=O)C2(CCCC2)NC(=O)[C@H](CC2CCCC2)N(C)C(=O)[C@H](CCc2ccc(C(F)(F)F)c(Cl)c2)NC(=O)CN(C)C(=O)[C@H](CC2CCCCC2)N(C)C(=O)CN(C)C(=O)CN(C)C1=O [Compound 643] ([NMeL]I[Sar][Sar][NMeCha][Sar][hPhe(3-Cl-4-CF3)][NMeAla(cPent)][Ac5c][NMeChg][NMeD]-Piperidide; lactam N-11)	27	> 500
CC[C@H](C)[C@@H]1NC(=O)[C@H](CC(C)C)N(C)C(=O)C[C@@H](C)N(C)C(=O)[C@H]([C@@H](C)CC)N(C)C(=O)C2(CCCC2)NC(=O)[C@@H]2CCCN2C(=O)[C@H](CCc2ccc(C(F)(F)F)c(Cl)c2)NC(=O)CN(C)C(=O)[C@H](Cc2ccc(C)cc2)N(C)C(=O)[C@@H]2CCN2C(=O)[C@H](C)N(C)C1=O [Compound 1793] (cyclo([Ac5c][NMeI][NMedβ3hAla][NMeL]I[NMeA][Aze][NMePhe(4-Me)][Sar][hPhe(3-Cl-4-CF3)]P))	1.9	≤ 20
CC[C@H](C)[C@@H]1NC(=O)[C@H](CC(C)C)N(C)C(=O)C[C@@H](C)NC(=O)[C@H](C2CCCC2)N(C)C(=O)[C@@H](C(C)C)NC(=O)[C@@H]2CCCN2C(=O)[C@H](CCc2ccc(C(F)(F)F)c(Cl)c2)NC(=O)CN(C)C(=O)[C@H](Cc2ccc(C)cc2)N(C)C(=O)[C@@H]2CCN2C(=O)[C@H](C)N(C)C1=O [Compound 598] (cyclo([Aze][NMePhe(4-Me)][Sar][hPhe(3-Cl-4-CF3)]P[dV][NMeGly(cPent)][d(β3hA)][NMeL]I[NMeA]))	300	> 500
CC[C@H](C)[C@@H]1NC(=O)[C@H](C)N(C)C(=O)C[C@@H](C)NC(=O)[C@H](C(C)C)N(C)C(=O)[C@H](Cc2ccccc2)N(C)C(=O)[C@H](CC(C)C)N(C)C(=O)[C@H](CCc2ccc(C(F)(F)F)c(F)c2)NC(=O)CN(C)C(=O)[C@H](Cc2ccc(Cl)cc2)N(C)C(=O)CN(C)C(=O)CN(C)C1=O [Compound 1105] (cyclo(I[Sar][Sar][NMePhe(4-Cl)][Sar][hPhe(3-F,4-CF3)][NMeL][NMeF][NMeV][d(β3hA)][NMeA]))	21	> 500
COCC[C@@H]1NC(=O)[C@H](CC(C)C)N(C)C(=O)C[C@@H](C(=O)N2CCCCC2)N(C)C(=O)[C@H](C(C)C)N(C)C(=O)C2(CCCC2)NC(=O)[C@@H]2CCCN2C(=O)[C@H](CCc2ccc(C(F)(F)F)c(Cl)c2)NC(=O)CN(C)C(=O)[C@H](CC2CCCCC2)N(C)C(=O)[C@@H]2CCN2C(=O)[C@H](C)N(C)C1=O [Compound 17] ([NMeL][hSer](Me)[NMeA][Aze][NMeCha][Sar][hPhe(3-Cl-4-CF3)]P[Ac5c][NMeV][NMeD]-Piperidide; lactam N-11)	30	> 500
CC[C@H](C)[C@@H]1NC(=O)[C@H](CC(C)C)N(C)C(=O)C[C@@H](C)NC(=O)[C@H](CC(C)C)N(C)C(=O)C(C)(C)NC(=O)[C@H](COCC(C)(C)O)N(C)C(=O)[C@H](CCc2ccc(C(F)(F)F)c(Cl)c2)NC(=O)CN(C)C(=O)[C@H](COCCC(C)C)N(C)C(=O)CN(C)C(=O)CN(CC)C1=O [Compound 1519] (cyclo([Aib][NMeL][d(β3hA)][NMeL]I[NEtG][Sar][NMeS](Isopentyl)[Sar][hPhe(3-Cl-4-CF3)][NMeS](CH2CMe2OH)))	120	> 500
CC[C@H](C)[C@@H]1NC(=O)[C@H](CC(C)C)N(C)C(=O)C[C@@H](C(=O)N2CCCCC2)N(C)C(=O)[C@H](C2CCCCC2)N(C)C(=O)C2(CCCC2)NC(=O)[C@@H](COCCC(C)C)N(C)C(=O)[C@H](CCc2ccc(C(F)(F)F)c(Cl)c2)NC(=O)CN(C)C(=O)[C@H](CC2CCCCC2)N(C)C(=O)CN(C)C(=O)CN(C)C1=O [Compound 1436] ([NMeL]I[Sar][Sar][NMeCha][Sar][hPhe(3-Cl-4-CF3)][dNMeS](Isopentyl)[Ac5c][NMeChg][NMeD]-Piperidide; lactam N-11)	39	> 500
CCCCC[C@H]1C(=O)N[C@@H]([C@@H](C)CC)C(=O)N(C)[C@@H](C)C(=O)N2CC[C@H]2C(=O)N(C)[C@@H](Cc2ccc(C(F)(F)F)cc2)C(=O)N(C)CC(=O)N[C@@H](CCc2ccc(C(F)(F)F)c(Cl)c2)C(=O)N2CCC[C@H]2C(=O)NC2(CCCC2)C(=O)N(C)[C@@H]([C@@H](C)CC)C(=O)N(C)[C@H](C(=O)N2CCCC2)CC(=O)N1C [Compound 509] ([NMeAhp(2)]I[NMeA][Aze][NMePhe(4-CF3)][Sar][hPhe(3-Cl-4-CF3)]P[Ac5c][NMeI][NMeD]-Pyrrolidide; lactam N-11)	1.3	≤ 20
CCCCC[C@H]1C(=O)N[C@@H]([C@@H](C)CC)C(=O)N[C@@H](C)C(=O)N2CC[C@H]2C(=O)N(C)[C@@H](Cc2ccc(C)cc2)C(=O)N(C)CC(=O)N[C@@H](CCc2ccc(C(F)(F)F)c(Cl)c2)C(=O)N2CCC[C@H]2C(=O)NC2(CCCC2)C(=O)N(C)[C@@H](C2CCCC2)C(=O)N(C)[C@H](C(=O)N(C)C)CC(=O)N1C [Compound 1059] ([NMeAhp(2)]IA[Aze][NMePhe(4-Me)][Sar][hPhe(3-Cl-4-CF3)]P[Ac5c][NMeGly(cPent)][NMeD]-NMe2; lactam N-11)	0.64	≤ 20
CCO[C@@H]1C[C@H]2C(=O)NC3(CCCC3)C(=O)N(C)[C@@H]([C@@H](C)CC)C(=O)N(C)[C@H](C)CC(=O)N(C)[C@@H](CC(C)C)C(=O)N[C@@H]([C@@H](C)CC)C(=O)N(C)CC(=O)N(C)CC(=O)N(C)[C@@H](Cc3ccc(C(F)(F)F)cc3)C(=O)N(C)CC(=O)N[C@@H](CCc3ccc(C(F)(F)F)c(Cl)c3)C(=O)N2C1 [Compound 695] (cyclo([Ac5c][NMeI][NMedβ3hAla][NMeL]I[Sar][Sar][NMePhe(4-CF3)][Sar][hPhe(3-Cl-4-CF3)][Hyp](Et)))	2.3	≤ 20
CC[C@H](C)[C@@H]1NC(=O)[C@H](CC(C)C)N(C)C(=O)C[C@@H](C(=O)N2CCOCC2)N(C)C(=O)[C@H](C2CCCC2)N(C)C(=O)C2(CCCC2)NC(=O)[C@@H]2CCCN2C(=O)[C@H](CCc2ccc(C(F)(F)F)c(Cl)c2)NC(=O)CN(C)C(=O)[C@H](C2CCCC2)N(C)C(=O)[C@@H]2CCN2C(=O)[C@H](C)N(C)C1=O [Compound 302] ([NMeL]I[NMeA][Aze][NMeGly(cPent)][Sar][hPhe(3-Cl-4-CF3)]P[Ac5c][NMeGly(cPent)][NMeD]-Morpholide; lactam N-11)	0.68	≤ 20
CC[C@H](C)[C@@H]1NC(=O)[C@H](CC(C)C)N(C)C(=O)C[C@@H](C(=O)N(C)C)N(C)C(=O)[C@H](C2CCCC2)N(C)C(=O)C2(CCCC2)NC(=O)[C@@H]2CCCN2C(=O)[C@H](CCc2ccc(C(F)(F)F)c(Cl)c2)NC(=O)CN(C)C(=O)[C@H](CC2CCCCC2)N(C)C(=O)[C@@H]2CCN2C(=O)[C@H](C)N(C)C1=O [Compound 1777] ([NMeL]I[NMeA][Aze][NMeCha][Sar][hPhe(3-Cl-4-CF3)]P[Ac5c][NMeGly(cPent)][NMeD]-NMe2; lactam N-11)	0.63	≤ 20
CC[C@H](C)[C@@H]1NC(=O)[C@H](CC(C)C)N(C)C(=O)C[C@@H](C(=O)N2CCCCC2)N(C)C(=O)[C@H](C(C)C)N(C)C(=O)C2(CCCC2)NC(=O)[C@@H]2CCCN2C(=O)[C@H](CCc2ccc(C(F)(F)F)c(Cl)c2)NC(=O)CN(C)C(=O)[C@H](C2CC2)N(C)C(=O)[C@@H]2CCN2C(=O)[C@H](C)N(C)C1=O [Compound 1677] ([NMeL]I[NMeA][Aze][NMeGly(cPr)][Sar][hPhe(3-Cl-4-CF3)]P[Ac5c][NMeV][NMeD]-Piperidide; lactam N-11)	8.6	> 500

Reference: patent US20240148821A1, “PHARMACEUTICAL USE OF CYCLIC PEPTIDE COMPOUND” (CHUGAI SEIYAKU KABUSHIKI KAISHA, priority 2021, published 2024)
